Patent publication US10010610B2, “Compositions and methods for the treatment of intraocular neovascularization and/or leakage” (Retinal Therapies LLC, priority 2014, dated 2018)

What was measured:
[1] = Slit lamp and fundus exams after topical ocular dosing in rabbits; conditions: Example 1 formulation, topical twice-a-day to both eyes, treated eyes
in vivo = conditions: rabbit, topical, 0.25 % w/v
[2] = octanol-water partition coefficient at pH 7.0; cited from earlier work

concentration at 5 day (in vivo; pigmented, plasma): < 12.5 ng/mL
concentration at 5 day (in vivo; posterior vitreous): 0.99 nM
SMILES: COc1cc2nccc(Oc3ccc(NC(=O)C4(C(=O)Nc5ccc(F)cc5)CC4)cc3)c2cc1OC [cabozantinib]
slit lamp and fundus exams [1]: completely normal except for slight conjuctival follicle formation
Log P [2]: 3.0
